# Reference: ChEMBL document CHEMBL5236624, “Synthesis, Characterization, and Application of Muscarinergic M3 Receptor Ligands Linked to Fluorescent Dyes” (J Med Chem, 2022)
# Legend:
# [1] = biological target: T1, Muscarinic acetylcholine receptor M1 (Homo sapiens, UniProt P11229); test: Displacement of [3H]N-methylscopolamine from human muscarinic M1 receptor expressed in human HEK293T cell membranes by radioligand competition binding based analysis; parameters: species or system Cell membrane
# T1 sequence (P11229 whole entry): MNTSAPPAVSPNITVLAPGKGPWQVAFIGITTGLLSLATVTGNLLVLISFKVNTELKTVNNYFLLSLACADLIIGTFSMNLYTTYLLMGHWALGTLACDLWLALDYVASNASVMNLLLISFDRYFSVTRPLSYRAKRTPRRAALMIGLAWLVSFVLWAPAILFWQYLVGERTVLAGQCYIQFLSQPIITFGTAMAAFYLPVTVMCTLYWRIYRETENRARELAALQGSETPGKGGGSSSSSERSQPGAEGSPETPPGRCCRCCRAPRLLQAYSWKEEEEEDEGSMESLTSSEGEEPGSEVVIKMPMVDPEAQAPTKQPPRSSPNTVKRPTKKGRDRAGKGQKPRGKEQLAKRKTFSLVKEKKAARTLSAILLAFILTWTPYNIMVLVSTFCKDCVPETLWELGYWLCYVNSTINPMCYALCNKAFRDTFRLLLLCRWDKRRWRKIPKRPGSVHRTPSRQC
# [2] = biological target: T2, Muscarinic acetylcholine receptor M2 (Homo sapiens, UniProt P08172); test: Displacement of [3H]N-methylscopolamine from human muscarinic M2 receptor expressed in human HEK293T cell membranes by radioligand competition binding based analysis; parameters: species or system Cell membrane
# T2 sequence (P08172 whole entry): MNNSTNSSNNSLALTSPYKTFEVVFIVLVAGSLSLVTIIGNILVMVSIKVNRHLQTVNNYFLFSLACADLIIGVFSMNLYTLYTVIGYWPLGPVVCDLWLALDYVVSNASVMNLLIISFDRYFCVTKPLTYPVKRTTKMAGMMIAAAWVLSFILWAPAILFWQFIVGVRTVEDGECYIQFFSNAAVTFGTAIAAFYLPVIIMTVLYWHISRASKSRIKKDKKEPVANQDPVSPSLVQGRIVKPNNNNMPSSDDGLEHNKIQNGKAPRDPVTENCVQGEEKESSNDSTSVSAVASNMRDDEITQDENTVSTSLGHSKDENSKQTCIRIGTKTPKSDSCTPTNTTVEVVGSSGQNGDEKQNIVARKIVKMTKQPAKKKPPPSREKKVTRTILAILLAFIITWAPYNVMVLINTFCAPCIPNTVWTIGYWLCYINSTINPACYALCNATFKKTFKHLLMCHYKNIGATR
# [3] = biological target: Muscarinic acetylcholine receptor M3 (Homo sapiens, UniProt P20309); test: Displacement of [3H]N-methylscopolamine from human muscarinic M3 receptor expressed in human HEK293T cell membranes by radioligand competition binding based analysis; parameters: species or system Cell membrane
# [4] = biological target: T3, Muscarinic acetylcholine receptor M4 (Homo sapiens, UniProt P08173); test: Displacement of [3H]N-methylscopolamine from human muscarinic M4 receptor expressed in human HEK293T cell membranes by radioligand competition binding based analysis; parameters: species or system Cell membrane
# T3 sequence (P08173 whole entry): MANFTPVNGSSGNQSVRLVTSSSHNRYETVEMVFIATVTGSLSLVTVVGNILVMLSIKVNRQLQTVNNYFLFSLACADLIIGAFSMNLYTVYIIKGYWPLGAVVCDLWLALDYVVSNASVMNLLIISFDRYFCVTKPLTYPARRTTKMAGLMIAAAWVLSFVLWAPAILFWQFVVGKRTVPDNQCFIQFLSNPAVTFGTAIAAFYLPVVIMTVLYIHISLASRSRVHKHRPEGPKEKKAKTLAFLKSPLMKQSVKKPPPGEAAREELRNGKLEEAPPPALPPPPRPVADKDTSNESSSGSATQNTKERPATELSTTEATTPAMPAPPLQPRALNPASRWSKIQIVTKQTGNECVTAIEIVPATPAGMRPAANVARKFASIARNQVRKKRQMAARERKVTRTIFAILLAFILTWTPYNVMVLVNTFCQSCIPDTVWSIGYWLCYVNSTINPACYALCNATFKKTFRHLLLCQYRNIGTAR
# [5] = biological target: T4, Muscarinic acetylcholine receptor M5 (Homo sapiens, UniProt P08912); test: Displacement of [3H]N-methylscopolamine from human muscarinic M5 receptor expressed in human HEK293T cell membranes by radioligand competition binding based analysis; parameters: species or system Cell membrane
# T4 sequence (P08912 whole entry): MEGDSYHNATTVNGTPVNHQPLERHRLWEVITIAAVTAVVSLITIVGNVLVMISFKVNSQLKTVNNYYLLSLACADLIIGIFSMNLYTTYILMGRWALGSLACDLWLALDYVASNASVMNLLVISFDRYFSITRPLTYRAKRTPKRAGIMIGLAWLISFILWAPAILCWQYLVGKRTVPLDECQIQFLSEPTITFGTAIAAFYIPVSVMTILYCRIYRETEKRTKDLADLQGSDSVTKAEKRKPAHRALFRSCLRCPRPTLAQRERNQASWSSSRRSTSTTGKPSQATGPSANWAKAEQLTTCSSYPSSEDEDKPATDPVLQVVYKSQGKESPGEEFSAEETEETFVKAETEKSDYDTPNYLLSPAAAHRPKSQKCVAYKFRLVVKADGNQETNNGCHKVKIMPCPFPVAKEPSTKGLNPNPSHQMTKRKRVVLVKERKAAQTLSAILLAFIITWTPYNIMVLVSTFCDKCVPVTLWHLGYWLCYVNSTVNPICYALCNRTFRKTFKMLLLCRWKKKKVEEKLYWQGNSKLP
# [6] = organism: Homo sapiens; test: Selectivity ratio, Ki for displacement of [3H]N-methylscopolamine from human muscarinic M4 receptor expressed in human HEK293T cell membranes to Ki for displacement of [3H]N-methylscopolamine from human muscarinic M3 receptor expressed in human HEK293T cell membranes
# [7] = organism: Homo sapiens; test: Selectivity ratio, Ki for displacement of [3H]N-methylscopolamine from human muscarinic M5 receptor expressed in human HEK293T cell membranes to Ki for displacement of [3H]N-methylscopolamine from human muscarinic M3 receptor expressed in human HEK293T cell membranes
# Muscarinic acetylcholine receptor M3, sequence (P20309 whole entry): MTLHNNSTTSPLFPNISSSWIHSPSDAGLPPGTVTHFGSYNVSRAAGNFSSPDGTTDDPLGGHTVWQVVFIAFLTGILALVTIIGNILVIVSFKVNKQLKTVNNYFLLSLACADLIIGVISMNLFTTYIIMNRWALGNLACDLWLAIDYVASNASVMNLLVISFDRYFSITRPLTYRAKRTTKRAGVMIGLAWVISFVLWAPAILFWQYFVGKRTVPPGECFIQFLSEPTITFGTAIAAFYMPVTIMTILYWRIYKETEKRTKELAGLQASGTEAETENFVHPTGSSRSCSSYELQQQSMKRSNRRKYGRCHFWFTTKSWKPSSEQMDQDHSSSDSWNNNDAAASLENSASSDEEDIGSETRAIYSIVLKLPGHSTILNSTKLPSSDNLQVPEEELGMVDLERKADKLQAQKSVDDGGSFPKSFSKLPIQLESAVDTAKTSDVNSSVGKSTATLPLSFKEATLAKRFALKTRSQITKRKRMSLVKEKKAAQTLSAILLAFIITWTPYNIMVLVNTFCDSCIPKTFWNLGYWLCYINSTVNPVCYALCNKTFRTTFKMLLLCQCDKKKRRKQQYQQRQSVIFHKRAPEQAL
SMILES,Ki [1] [nM],Ki [2] [nM],Ki [3] [nM],Ki [4] [nM],Ki [5] [nM],Selectivity ratio [6],Selectivity ratio [7]
NCCCCCCN1CCC(COC(=O)Nc2ccc(F)cc2-c2ccc(F)c(Cl)c2)CC1,0.43,1.4,0.081,,,,
C#CCCCCCCN1CCC(COC(=O)Nc2ccc(F)cc2-c2ccc(F)c(Cl)c2)CC1,0.64,9.3,0.32,,,,
CN1/C(=C/C=C/C=C/C2=[N+](CCCCCC(=O)NCCCCCCCCN3CCC(COC(=O)Nc4ccc(F)cc4-c4ccc(F)c(Cl)c4)CC3)c3ccccc3C2(C)C)C(C)(C)c2ccccc21,1.8,1.1,3.2,0.56,2.6,0.18,0.81
NCCCCCCCCN1CCC(OC(=O)Nc2ccc(F)cc2-c2ccc(F)c(Cl)c2)CC1,0.34,1.7,0.28,,,,
CN(C)c1ccc2c(-c3ccc(-c4cn(CCCCCn5cc(CCCCCN6CCC(COC(=O)Nc7ccc(F)cc7-c7ccc(F)c(Cl)c7)CC6)nn5)nn4)cc3C(=O)[O-])c3ccc(=[N+](C)C)cc-3oc2c1,3.8,26,3.1,2.6,12,0.84,3.9
CN(C)c1ccc2c(-c3ccc(-c4cn(CCCCCn5cc(CCCCCN6CCC(OC(=O)Nc7ccc(F)cc7-c7ccc(F)c(Cl)c7)CC6)nn5)nn4)cc3C(=O)[O-])c3ccc(=[N+](C)C)cc-3oc2c1,4.1,26,6.8,3.3,9.7,0.49,1.4
CN(C)c1ccc2c(-c3ccc(-c4cn(CCCCCn5cc(CCCCCCN6CCC(OC(=O)Nc7ccc(F)cc7-c7ccc(F)c(Cl)c7)CC6)nn5)nn4)cc3C(=O)[O-])c3ccc(=[N+](C)C)cc-3oc2c1,2,9.8,12,3.8,11,0.32,0.92
CN1/C(=C/C=C/C=C/C2=[N+](CCCCCC(=O)NCCCNCCCCCCN3CCC(COC(=O)Nc4ccc(F)cc4-c4ccc(F)c(Cl)c4)CC3)c3ccccc3C2(C)C)C(C)(C)c2ccccc21,1.9,9.9,7.7,1.7,18,0.22,2.3
C#CCCCCCN1CCC(COC(=O)Nc2ccc(F)cc2-c2ccc(F)c(Cl)c2)CC1,1.3,13,0.77,,,,
CN1/C(=C/C=C/C=C/C2=[N+](CCCCCC(=O)NCCCCCCN3CCC(OC(=O)Nc4ccc(F)cc4-c4ccc(F)c(Cl)c4)CC3)c3ccccc3C2(C)C)C(C)(C)c2ccccc21,2.7,5.9,2.7,5.4,40,2,15
CN1/C(=C/C=C/C=C/C2=[N+](CCCCCC(=O)NCCCCCCCCN3CCC(OC(=O)Nc4ccc(F)cc4-c4ccc(F)c(Cl)c4)CC3)c3ccccc3C2(C)C)C(C)(C)c2ccccc21,1,0.62,,0.86,,1.4,
NCCCCCCN1CCC(OC(=O)Nc2ccc(F)cc2-c2ccc(F)c(Cl)c2)CC1,1.9,28,2.6,,,,
C#CCCCCCN1CCC(OC(=O)Nc2ccc(F)cc2-c2ccc(F)c(Cl)c2)CC1,2,23,1.8,,,,
C#CCCCCCCN1CCC(OC(=O)Nc2ccc(F)cc2-c2ccc(F)c(Cl)c2)CC1,0.63,7.9,1,,,,
O=C(Nc1ccc(F)cc1-c1ccc(F)c(Cl)c1)OC1CCNCC1,2.8,92,4.3,,,,
CN1/C(=C/C=C/C=C/C2=[N+](CCCCCC(=O)NCCCCCCN3CCC(COC(=O)Nc4ccc(F)cc4-c4ccc(F)c(Cl)c4)CC3)c3ccccc3C2(C)C)C(C)(C)c2ccccc21,2.3,6.7,6.3,0.9,6.9,0.14,1.1
NCCCCCCCCN1CCC(COC(=O)Nc2ccc(F)cc2-c2ccc(F)c(Cl)c2)CC1,0.35,0.92,0.15,,,,
